Assay results as given in patent US8389680B2, “Treatment of Aspergillus infections with alpha thymosin peptides” (SciClone Pharmaceuticals, Inc., priority 2003, dated 2013).
“Also recorded” adds a separate entry of the source.

Assays:
A. fumigatus [1] = assay: Therapeutic efficacy of TA1 in T cell-, IFN-gamma- or IL-4-deficient mice with aspergillosis; format: in vivo
Description: Female, 8- to 10-weeks old, BALB/c and C57BL6 mice were from Charles River. NOD/SCID were from The Jackson. Breeding pairs of homozygous TLR2-, TLR9- and MyD88-deficient mice, raised on C57BL6 background, and of homozygous IFN-gamma- and IL-4-deficient mice, raised on BALB/c background, were bred under specific-pathogen free conditions.
(§1) For infection with A. fumigatus, mice were intranasally injected for 3 consecutive days with a suspension of 2×10^7 conidia/20 microliter saline. For the quantification of fungal growth in the lungs, the chitin assay was used. The chitin content was expressed as micrograms of glucosamine per organ. The glucosamine content of lungs from uninfected mice was used as a negative control ranging between 0.80 and 2.25 microgram glucosamine/organ. For histological analysis, lungs were excised and immediately fixed in formalin. Sections (3 to 4 micron) of paraffin-embedded tissues were stained with the periodic acid-Schiff procedure. Thymosin alpha 1 (TA1) and the scrambled polypeptide are as purified sterile lyophilized acetylated polypeptides with endotoxin levels less than 0.03 pg/ml, by a standard limulus lysate assay. The sequences were as follows: Ac-[…]O (Thymosin alpha 1, SEQ ID NO.: 1) and Ac-[…]OH ([…]). Their lyophilized powders were reconstituted in sterile water.
The treatments were as follows; in BMT-mice, TA1, at different doses administered intraperitoneally, sthymosin alpha 1, 400 microgram/kg administered intraperitoneally or human recombinant G-CSF 250 microgram/kg administered intravenously, were given daily beginning the day of the BM infusion, in concomitance with the infection and continuing for an additional 3 days. Amphotericin B was given daily for 3 days in concomitance with the infection, at a dose of 4000 microgram/kg, administered intraperitoneally. This dose would cure IA in cyclophosphamide-treated mice. Cyclophosphamide, 150 mg/kg administered intraperitoneally, was given a day before the infection. […]

human TLR9 = target: T1, human TLR9 (Homo sapiens, UniProt Q9NR96); assay: IL-8 production by TLR9-transfected HEK293 cells; format: cell-based
T1 construct: expressed in transfected cells; host or cells: HEK293
T1 sequence (Q9NR96 26-1032): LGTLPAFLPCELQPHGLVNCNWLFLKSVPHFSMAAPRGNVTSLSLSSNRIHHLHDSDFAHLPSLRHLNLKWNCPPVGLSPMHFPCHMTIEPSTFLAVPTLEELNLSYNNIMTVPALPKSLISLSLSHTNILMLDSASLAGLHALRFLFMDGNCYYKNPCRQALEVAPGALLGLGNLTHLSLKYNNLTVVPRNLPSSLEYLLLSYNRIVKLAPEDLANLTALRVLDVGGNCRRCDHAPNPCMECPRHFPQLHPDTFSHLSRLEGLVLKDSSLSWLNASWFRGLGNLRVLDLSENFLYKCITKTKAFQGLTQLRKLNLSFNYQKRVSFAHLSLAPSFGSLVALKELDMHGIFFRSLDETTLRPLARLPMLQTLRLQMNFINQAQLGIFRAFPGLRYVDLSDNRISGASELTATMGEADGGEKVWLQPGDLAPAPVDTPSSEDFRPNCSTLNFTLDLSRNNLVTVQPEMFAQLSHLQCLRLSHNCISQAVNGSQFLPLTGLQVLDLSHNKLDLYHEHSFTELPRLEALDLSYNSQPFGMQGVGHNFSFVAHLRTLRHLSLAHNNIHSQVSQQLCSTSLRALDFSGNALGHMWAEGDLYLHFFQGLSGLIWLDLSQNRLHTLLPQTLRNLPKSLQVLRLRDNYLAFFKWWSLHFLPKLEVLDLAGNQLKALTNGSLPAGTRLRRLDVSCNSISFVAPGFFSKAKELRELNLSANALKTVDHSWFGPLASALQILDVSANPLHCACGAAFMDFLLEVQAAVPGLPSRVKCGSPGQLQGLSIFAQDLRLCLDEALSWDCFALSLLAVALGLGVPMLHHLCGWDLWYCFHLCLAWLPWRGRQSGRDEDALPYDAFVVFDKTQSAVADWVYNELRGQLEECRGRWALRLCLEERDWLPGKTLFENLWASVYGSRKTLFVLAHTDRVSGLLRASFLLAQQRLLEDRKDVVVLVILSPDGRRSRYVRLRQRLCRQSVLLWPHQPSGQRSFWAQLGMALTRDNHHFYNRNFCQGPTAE
Method: (§2) The human embryonic kidney cell line HEK293, wild type or stably transfected with human TLR2, TLR9 and TLR4/CD1427 were cultured in low glucose Dulbecco's modified Eagle's medium supplemented with 10% FCS, HEPES ([…]), L-glutamine ([…]), and gentamycin (50 microgram/ml). Transfectants were additionally supplemented with puromycin (100 microgram/ml). For stimulation experiments, cells were cultured at a density of 3 to 5×10^5 cells/wells in 12-well tissue culture plates overnight. Cells were washed and stimulated with 100 ng/ml TA1 either alone or together with TLR ligands for 5 h before the assessment of IL-8 production in the supernatants.
(§3) The levels of TNF-alpha, IL-10, IL-12 p70, IFN-alpha and IL-8 in culture supernatants were determined by Kit ELISAs. The detection limits (pg/ml) of the assays were <3 (human) and <32 (murine) for TNF-alpha, <12 (murine) and <5 (human) for IL-10, <16 (murine) and <3 (human) for IL-12 p70 and <25 (human) IL-8. For human IFN-alpha <3 ng/ml. For enumeration of cytokine-producing cells, an ELISPOT assay was used on purified CD4^+ T cells and DCs from lungs.

Aspergillus conidia = assay: Antifungal effector activity (conidiocidal activity) of macrophages and neutrophils; format: cell-based; settings: TA1 treated mice
Method: […] In addition, the conidiocidal activity was assessed by determining the number of colony forming units and the percentage of colony forming units inhibition (mean±SE), referred to as conidiocidal activity.

human TLR2 = target: T2, human TLR2 (Homo sapiens, UniProt O60603); assay: IL-8 production by TLR2-transfected HEK293 cells; format: cell-based
T2 construct: expressed in transfected cells; host or cells: HEK293
Method: as §2, §3

A. fumigatus [2] = assay: BMT mice with invasive aspergillosis: survival, fungal growth in lungs (chitin assay), lung histology; format: in vivo
Description: as §1
The treatments were as follows; in BMT-mice, TA1, at different doses administered intraperitoneally, sthymosin alpha 1, 400 microgram/kg administered intraperitoneally or human recombinant G-CSF 250 microgram/kg administered intravenously, were given daily beginning the day of the BM infusion, in concomitance with the infection and continuing for an additional 3 days. Amphotericin B was given daily for 3 days in concomitance with the infection, at a dose of 4000 microgram/kg, administered intraperitoneally. This dose would cure IA in cyclophosphamide-treated mice. Cyclophosphamide, 150 mg/kg administered intraperitoneally, was given a day before the infection. In cyclophosphamide-treated mice, 400 microgram/kg TA1 was given intraperitoneally for 5 consecutive days beginning the day of the infection.
C57BL6 mice were exposed to a lethal dose of 9 Gy and infused with T cell-depleted donor cells from BALB/c mice.

[3] = mice treated with both agents (TA1 and amphotericin B)

T2 sequence (O60603 21-784): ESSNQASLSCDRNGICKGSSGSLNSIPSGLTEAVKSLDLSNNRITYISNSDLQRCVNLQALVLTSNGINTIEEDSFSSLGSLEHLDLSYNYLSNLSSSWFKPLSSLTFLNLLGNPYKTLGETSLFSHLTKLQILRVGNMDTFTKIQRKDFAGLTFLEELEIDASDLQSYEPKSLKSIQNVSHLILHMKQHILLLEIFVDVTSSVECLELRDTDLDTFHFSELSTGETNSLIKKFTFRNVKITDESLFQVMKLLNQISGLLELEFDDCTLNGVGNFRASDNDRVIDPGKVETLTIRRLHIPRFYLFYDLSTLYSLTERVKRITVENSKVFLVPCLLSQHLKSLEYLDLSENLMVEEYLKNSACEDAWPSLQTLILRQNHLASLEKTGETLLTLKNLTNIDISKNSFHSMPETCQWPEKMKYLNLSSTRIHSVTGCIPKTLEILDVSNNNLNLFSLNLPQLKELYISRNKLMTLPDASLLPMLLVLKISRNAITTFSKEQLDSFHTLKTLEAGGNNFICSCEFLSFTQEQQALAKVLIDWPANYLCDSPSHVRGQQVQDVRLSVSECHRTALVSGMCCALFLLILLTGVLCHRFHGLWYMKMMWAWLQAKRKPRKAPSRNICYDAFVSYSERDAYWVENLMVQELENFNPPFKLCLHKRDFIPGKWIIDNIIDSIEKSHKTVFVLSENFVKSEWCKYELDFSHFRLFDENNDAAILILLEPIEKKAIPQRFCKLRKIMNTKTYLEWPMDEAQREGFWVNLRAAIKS

Ac-Ser-Asp-Ala-Ala-Val-Asp-Thr-Ser-Ser-Glu-Ile-Thr-Thr-Lys-Asp-Leu-Lys-Glu-Lys-Lys-Glu-Val-Glu-Glu-Ala-Glu-Asn-O (Ac-SDAAVDTSSEITTKDLKEKKEVEEAEN-OH) [TA1, naturally occurring thymic peptide]
therapeutic efficacy (A. fumigatus [1]; IL-4-deficient mice (increased Th1 cells)): improved therapeutic efficacy
therapeutic efficacy (A. fumigatus [1]; mice devoid of IFN-gamma-producing Th1 cells): not as great
therapeutic efficacy (A. fumigatus [1]; mice devoid of T cells): not as great
production of IL-8 (human TLR9; TA1 alone, 100 ng/ml, 5 h): directly activate; also recorded: significantly increased
production of IL-8 (human TLR9; in response to the TLR9 ligand CpG): significantly increased
conidiocidal activity of macrophages (Aspergillus conidia): higher
conidiocidal activity of neutrophils (Aspergillus conidia): higher
production of IL-8 (human TLR2; TA1 alone): did not stimulate
production of IL-8 (human TLR2; in response to zymosan): potentiated; also recorded: slightly increased
protection compared with amphotericin B (A. fumigatus [2]; 200 and 400 microgram/kg TA1, amphotericin B 4000 microgram/kg): superior to that of amphotericin B
survival (full protection) (A. fumigatus [2]; 200 microgram/kg TA1): > 60 days
survival (full protection) (A. fumigatus [2]; 400 microgram/kg TA1): > 60 days
fungal growth in the lungs (A. fumigatus [2]; BMT mice with IA): dose-responsive reduction; also recorded: reduced fungal growth
survival (A. fumigatus [2]; BMT mice with IA): increased survival
effect on protection, dose relation (A. fumigatus [2]; BMT mice with IA, different doses): dose-dependent
cure of BMT mice with IA (A. fumigatus [2]; intraperitoneally, daily): complete cure; also recorded: able to cure
lung pathology (A. fumigatus [2]; lung sections, periodic acid-Schiff): decreases lung pathology
effect on therapeutic efficacy of amphotericin B (A. fumigatus [2]; mice treated with both agents): increases the therapeutic efficacy of amphotericin B
fungal burden (A. fumigatus [2]; [3]): decreased fungal burden
survival (A. fumigatus [2]; [3]): increased survival
